Data as given in paper PMC8069832, “New Amides and Phosphoramidates Containing Selenium: Studies on Their Cytotoxicity and Antioxidant Activities in Breast Cancer” (Antioxidants, 2021).

How the values were obtained:
Assay in all cases: cells
MCF-7 = conditions: Homo sapiens, MCF7, 48 h, read-out: Cell growth (%) MCF-7
HT-29 = conditions: Homo sapiens, HT-29, 48 h, read-out: Cell growth (%) HT-29
CCRF-CEM = conditions: Homo sapiens, 48 h, read-out: Cell growth (%) CCRF-CEM

| Compound | activity at 10 µM (MCF-7) [%] | activity at 10 µM (HT-29) [%] | activity at 10 µM (CCRF-CEM) [%] |
| --- | --- | --- | --- |
| O=C(Nc1ccc([Se][Se]c2ccc(NC(=O)c3ccccc3)cc2)cc1)c1ccccc1 [I.1a] | 79.7 | 82.6 | 103 |
| COc1ccc(C(=O)Nc2ccc([Se][Se]c3ccc(NC(=O)c4ccc(OC)cc4)cc3)cc2)cc1 [I.1c] | 79 | 81.4 | 57.5 |
| N#Cc1ccc(C(=O)Nc2ccc([Se][Se]c3ccc(NC(=O)c4ccc(C#N)cc4)cc3)cc2)cc1 [I.1d] | 79.1 | 109 | 101 |
| O=C(Nc1ccc([Se][Se]c2ccc(NC(=O)c3cccs3)cc2)cc1)c1cccs1 [I.1i] | 104 | 98.2 | 100 |
| O=C(Nc1ccc([Se][Se]c2ccc(NC(=O)c3ccno3)cc2)cc1)c1ccno1 [I.1j] | 92.2 | 98.9 | 112 |
| O=C(Nc1ccc([Se][Se]c2ccc(NC(=O)C34CC5CC(CC(C5)C3)C4)cc2)cc1)C12CC3CC(CC(C3)C1)C2 [I.1k] | 88 | 97.1 | 90.2 |
| O=C(/C=C/c1ccccc1)Nc1ccc([Se][Se]c2ccc(NC(=O)/C=C/c3ccccc3)cc2)cc1 [I.1l] | 76.7 | 93 | 50 |
| O=C(Nc1ccc([Se][Se]c2ccc(NC(=O)c3cccc4ccccc34)cc2)cc1)c1cccc2ccccc12 [I.1m] | 75.5 | 78.8 | 74.4 |
| N#C[Se]c1ccc(NC(=O)c2ccccc2)cc1 [I.2a] | 63.7 | 71.6 | 103 |
| COc1ccc(C(=O)Nc2ccc([Se]C#N)cc2)cc1 [I.2c] | 97.8 | 93.3 | 76.5 |
| N#C[Se]c1ccc(NC(=O)c2ccc(C#N)cc2)cc1 [I.2d] | 74.3 | 105 | 115 |
| Cc1ccc(C(=O)Nc2ccc([Se]C#N)cc2)cc1 [I.2g] | 70.4 | 94.1 | 94.3 |
| N#C[Se]c1ccc(NC(=O)C23CC4CC(CC(C4)C2)C3)cc1 [I.2k] | 113 | 99.7 | 107 |
| N#C[Se]c1ccc(NC(=O)/C=C/c2ccccc2)cc1 [I.2l] | 65 | 76 | 62 |
| N#C[Se]c1ccc(NC(=O)c2cccc3ccccc23)cc1 [I.2m] | 101 | 101 | 70.9 |
| CSc1ccc(C(=O)Nc2ccc([Se]C#N)cc2)cc1 [I.2n] | 69.5 | 101 | 100 |
| O=P(Nc1ccc([Se][Se]c2ccc(NP(=O)(Oc3ccccc3)Oc3ccccc3)cc2)cc1)(Oc1ccccc1)Oc1ccccc1 [II.1c] | 94 | 109 | 85.2 |
| O=P(Nc1ccccc1)(Nc1ccc([Se][Se]c2ccc(NP(=O)(Nc3ccccc3)Oc3ccccc3)cc2)cc1)Oc1ccccc1 (stereo not drawn) [II.1f] | 90 | 106 | 125 |
| Cc1ccc(OP(=O)(Nc2ccc([Se][Se]c3ccc(NP(=O)(Oc4ccc(C)cc4)Oc4ccc(C)cc4)cc3)cc2)Oc2ccc(C)cc2)cc1 [II.1g] | 82.6 | 104 | 111 |
| N#C[Se]c1ccc(NP(=O)(Oc2ccccc2)Oc2ccccc2)cc1 [II.2c] | 114 | 116 | 81.9 |
| N#C[Se]c1ccc(NP(=O)(Nc2ccccc2)Oc2ccccc2)cc1 (stereo not drawn) [II.2f] | 61.4 | 64.6 | 22.3 |
| Cc1ccc(OP(=O)(Nc2ccc([Se]C#N)cc2)Oc2ccc(C)cc2)cc1 [II.2g] | 75.6 | 99.1 | 108 |
